US12485104B2, “Amino acid derivatives containing a disulfanyl group as an inhibitor of NEP and APN for the prevention and treatment of trigeminal nerve pain” (KOS THERAPEUTICS, INC., priority 2018, dated 2025)

Legend:
[1] = test system: rats, migraine model induced by single injection of isosorbide dinitrate (ISDN); test: Mechanical cephalic allodynia induced by single ISDN (acute migraine), von Frey test, oral treatment; type: in vivo; conditions: 50 mg/kg orally (FIG. 3)
Procedure: The effects of systemic administration of compound 1 on mechanical cephalic allodynia were tested in rats in a migraine model induced by single systemic injection of an NO donor, isosorbide dinitrate (ISDN). Indeed, the powerful vasodilating action of “NO donors” explains their particular propensity to trigger headache in healthy subjects and migraine attacks in migraine patients (Hansen & Olesen, Cephalalgia (2017), 37: 11-19).
The experiments were conducted on male Sprague-Dawley CD rats (200-250 g, Charles River Laboratories). A minimum delay of 7 days was respected before any experimentation.
(§1) The animals were first subjected to habituation sessions designed to reproduce the animals environmental conditions and handling by the experimenter during the final test.
(§2) The mechanical sensitivity of the periorbital region was measured by the von Frey test, which consists of applying a range of von Frey filaments in this region, calibrated to exert a constant force (expressed in grams) to determine the force (threshold) that leads to a head withdrawal reaction. […] The rats then received an intraperitoneal injection of ISDN (10 mg/kg) and cutaneous sensitivity was assessed by means of the von Frey test. […] On the day of the experiment, the forces exerted by the von Frey filaments that led to head withdrawal were measured in each rat under controlled conditions every 30 minutes for 4 hours. […]

[2] = test system: rats, migraine model induced by repeated injection of isosorbide dinitrate (ISDN); test: Persistent cephalic allodynia induced by recurrent ISDN (chronic migraine), von Frey test, IV treatment; type: in vivo; conditions: 20 mg/kg intravenously (FIG. 2)
Procedure: The effects of systemic administration of compound 1 on mechanical cephalic allodynia were tested in rats in a migraine model induced by repeated systemic injection of an NO donor, isosorbide dinitrate (ISDN). Indeed, the powerful vasodilating action of “NO donors” explains their particular propensity to trigger headache in healthy subjects and migraine attacks in migraine patients (Hansen & Olesen, Cephalalgia (2017), 37: 11-19).
The experiments were conducted on male Sprague-Dawley CD rats (200-250 g, Charles River Laboratories). A minimum delay of 7 days was respected before any experimentation. […]
as §2, with “received successive” for “received an”, “intraperitoneal injections” for “intraperitoneal injection”

[3] = test system: SJL mice, EAE model (hyperalgesia); test: Tail immersion test in multiple sclerosis model (experimental autoimmune encephalomyelitis, EAE); type: in vivo; conditions: for Nociceptive threshold (tail withdrawal latency time): 20 min after administration, 48° C. bath
Excerpt: The multiple sclerosis model can be induced in SJL mice, female albino white mice, by the administration of an emulsion made up of a myeline fragment and complete Freund® adjuvant (Aicher et al., Pain (2004), 110: 560-570). Central nervous system inflammation appears at the end of around ten days=experimental autoimmune encephalomyelitis, or EAE.
Female SJL mice, purchased from Charles River Laboratories, arrive at the age of 5 weeks and are immunized at the age of 6 weeks. Each mouse receives, under mask anesthesia (2% isoflurane), an emulsion of a volume of 200 μL in the left flank, containing 150 μg of PLP139-151 (Proteolipid Protein Myelin, fragment 139-151) in 100 μL of sterile 0.9% NaCl as well as 100 μL of incomplete Freund® adjuvant (Sigma) completed by inactivated Mycobacterium tuberculosis (Difco, USA) at 4 mg/mL=complete adjuvant.
The symptoms of the disease are reported between D10 and D15, which is reflected by an acute phase, during which scores are high and the animals present a loss of pain sensitivity. This phase precedes a chronic phase which starts around D18 and is characterized by stabilization of the animals general condition and the onset of a significant lowering in the pain perception threshold (hyperalgic state) (Aicher et al., Pain (2004), 110: 560-570).
Nociceptive thresholds were determined from D12 by the tail immersion test.
Compound 1 is administered IP (intraperitoneally) at 50 mg/kg and 100 mg/kg in a EtOH/Tween 80/Water carrier (10/10/80) (100 μL per 10 g of mice). The measurement of time of tail withdrawal from a 48° C. bath is done at 20 min after injection (cut-off=10 sec).

[4] = test system: healthy volunteers; test: Adverse effects observed during phase 1b clinical study; conditions: N = 6
Procedure: The doses indicated in the following table were administered 4 times a day for 5 days, the daily dose varying from 800 to 4000 mg, the total quantity over five days being comprised between 4000 and 20,000 mg.

[5] = test system: rats, chronic migraine model induced by repeated injection of isosorbide dinitrate (ISDN); test: Prevention of migraine attacks by oral administration, chronic ISDN model, von Frey test; type: in vivo
Procedure: The effects of oral administration of compound 1 on mechanical cephalic allodynia were tested in rats in a chronic migraine model induced by repeated systemic injection of an NO donor, isosorbide dinitrate (ISDN). Indeed, the powerful vasodilating action of “NO donors” explains their particular propensity to trigger headache in healthy subjects and migraine attacks in migraine patients (Hansen & Olesen, Cephalalgia (2017), 37: 11-19).
The experiments were conducted on male rats (10 rats per group of the Sprague-Dawley CD strain (200-250 g, Charles River Laboratories), randomly assigned into each group before experimentation. A minimum delay of 7 days was respected before any experimentation. The experiments were conducted with the experimenter blinded.
as §1
The mechanical sensitivity of the periorbital region was measured by the von Frey test, which consists of applying a range of von Frey filaments in this region, calibrated to exert a constant force (expressed in grams) to determine the force (threshold) that leads to a head withdrawal reaction. The rats were habituated to these tests for 5 days preceding the experiment for one hour, so that repeated measurements give reproducible results. […] The rats then received successive intraperitoneal injections of ISDN (10 mg/kg) and cutaneous sensitivity was assessed by means of the von Frey test. […]
Cutaneous mechanical sensitivity was measured before and on the test day (FIG. 4, single administration of compound 1 or FIG. 6, repeated administration of compound 1) or before and on the test day (Days 1, 2, 3, 4 and 5) (FIG. 5, repeated administration of compound 1) before injection and at 30 min intervals for 4 h in the different groups of rats receiving intraperitoneal ISDN (10 mg/kg, volume of 10 mL/kg). […]

[6] = 200 mg 4 times a day for 5 days
[7] = 400 mg 4 times a day for 5 days
[8] = 600 mg 4 times a day for 5 days
[9] = 800 mg 4 times a day for 5 days
[10] = 1000 mg 4 times a day for 5 days

With `CCOC(=O)OC(C)OC(=O)CNC(=O)[C@@H](CSSC[C@@H](N)CCSC)Cc1ccccc1.O=C(O)/C=C/C(=O)O` (stereo partly drawn) [Compound 1, (5S,10S)-10-benzyl-16-methyl-11,14,18-trioxo-15,17,19-trioxa-2,7,8-trithia-12-azahenicosan-5-aminium fumarate] the “Effect on cephalic cutaneous sensitivity (von Frey)” value [1] was “considerably reduces cephalic cutaneous sensitivity”, the “Effect on cephalic cutaneous sensitivity (von Frey)” value [2] was “considerably reduces cephalic cutaneous sensitivity” and the “Nociceptive threshold (tail withdrawal latency time)” value (shortened to “Nociceptive threshold”) ([3]; 50 mg/kg IP, D21) was 5.12 (4) seconds. The “Nociceptive threshold” value ([3]; 50 mg/kg IP, D28) was 4.14 (5) seconds, the “Nociceptive threshold” value ([3]; 100 mg/kg IP, D28) was 5.98 (5) seconds and the “Nociceptive threshold” value ([3]; 100 mg/kg IP, D35) was 5.46 (5) seconds. For the same compound, the Effect on hyperalgesia ([3]; 50 and 100 mg/kg IP (FIG. 1)) was “permits reducing hyperalgesia”, the “Subjects with Death” value [4, 6] was 0 and the “Subjects with LAE (limiting adverse event)” value [4, 6] was 0. The “Subjects with SAE (serious adverse event)” value (“Subjects with SAE” for short) [4, 6] was 0, the “Subjects with TEAEs, (%)” value [4, 6] was 16.7% and the “TEAEs, E = number of adverse reactions” value [4, 6] was 3. For the same compound, the “Subjects with Death” value [4, 7] was 0, the “Subjects with LAE (limiting adverse event)” value [4, 7] was 0 and the “Subjects with SAE” value [4, 7] was 0. The “Subjects with TEAEs, (%)” value [4, 7] was 83.3%, the “TEAEs, E = number of adverse reactions” value [4, 7] was 12 and the “Subjects with Death” value [4, 8] was 0. For the same compound, the “Subjects with LAE (limiting adverse event)” value [4, 8] was 0, the “Subjects with SAE” value [4, 8] was 0 and the “Subjects with TEAEs, (%)” value [4, 8] was 66.7%. For the same compound, the “TEAEs, E = number of adverse reactions” value [4, 8] was 7, the “Subjects with Death” value [4, 9] was 0 and the “Subjects with LAE (limiting adverse event)” value [4, 9] was 0. For the same compound, the “Subjects with SAE” value [4, 9] was 0, the “Subjects with TEAEs, (%)” value [4, 9] was 100.0% and the “TEAEs, E = number of adverse reactions” value [4, 9] was 10. For the same compound, the “Subjects with Death” value [4, 10] was 0, the “Subjects with LAE (limiting adverse event)” value [4, 10] was 0 and the “Subjects with SAE” value [4, 10] was 0. The “Subjects with TEAEs, (%)” value [4, 10] was 66.7%, the “TEAEs, E = number of adverse reactions” value [4, 10] was 15 and the “Effect on cutaneous cephalic sensitivity (von Frey)” value ([5]; 50 mg/kg orally once daily for 5 days, as a function of time after ISDN, versus carrier (FIG. 6)) was “significantly reduces cutaneous cephalic sensitivity”. The “Effect on cutaneous cephalic sensitivity (von Frey)” value ([5]; 50 mg/kg orally once on the experiment day (FIG. 4)) was “had no effect on cutaneous cephalic sensitivity” and the “Effect on cutaneous cephalic sensitivity (von Frey)” value ([5]; 50 mg/kg orally repeatedly over 5 days, before administration of ISDN, versus carrier (FIG. 5)) was “significantly reduces cutaneous cephalic sensitivity”.
